The target in data set [1] is T1, Histone acetyltransferase p300 (Homo sapiens, UniProt Q09472). The experiment in a line: Inhibition of N-terminal His tagged human EP300 (1159-1666 residues) expressed in Escherichia coli BL21 (DE3) using biotinylated H4 (1 to 25)-GSGSK peptide as substrate incubated for 1 hr by AlphaLISA assay.
For data set [2], the target named is T1, Histone acetyltransferase p300. The experiment in a line: Inhibition of EP300 in human LK2 cells assessed as reduction in intracellular histone H3 acetylation at lysine 27 residue incubated for 3 hrs by chemiluminescence based ELISA. The data set is classed as cell-based. (In general: In an ELISA, binding on a coated surface is turned into a signal by an enzyme label.)

The nature of data set [3]: Metabolic stability in mouse liver microsomes assessed as parent compound remaining measured after 0.5 hr. The data set is classed as ADME, Microsome. The following applies: read-out: Stability. For orientation: Liver microsomes are vesicles of endoplasmic reticulum, rich in cytochrome P450 enzymes.
Data set [4] addresses Histone acetyltransferase KAT2A (Homo sapiens, UniProt Q92830). The experiment in a line: Inhibition of GST tagged human GCN5 (323 to end residues) expressed in Sf9 cells using biotinylated H3 (1 to 21)-GGK peptide as substrate incubated for 1 hr by AlphaLISA assay.
Data set [5] has as its target T2, CREB-binding protein (Homo sapiens, UniProt Q92793). Put plainly: Inhibition of CBP (unknown origin) using biotinylated H4 (1 to […])-GSGSK peptide as substrate incubated for 1 hr by AlphaLISA assay.
Target sequence in this assay (Q92793 whole entry): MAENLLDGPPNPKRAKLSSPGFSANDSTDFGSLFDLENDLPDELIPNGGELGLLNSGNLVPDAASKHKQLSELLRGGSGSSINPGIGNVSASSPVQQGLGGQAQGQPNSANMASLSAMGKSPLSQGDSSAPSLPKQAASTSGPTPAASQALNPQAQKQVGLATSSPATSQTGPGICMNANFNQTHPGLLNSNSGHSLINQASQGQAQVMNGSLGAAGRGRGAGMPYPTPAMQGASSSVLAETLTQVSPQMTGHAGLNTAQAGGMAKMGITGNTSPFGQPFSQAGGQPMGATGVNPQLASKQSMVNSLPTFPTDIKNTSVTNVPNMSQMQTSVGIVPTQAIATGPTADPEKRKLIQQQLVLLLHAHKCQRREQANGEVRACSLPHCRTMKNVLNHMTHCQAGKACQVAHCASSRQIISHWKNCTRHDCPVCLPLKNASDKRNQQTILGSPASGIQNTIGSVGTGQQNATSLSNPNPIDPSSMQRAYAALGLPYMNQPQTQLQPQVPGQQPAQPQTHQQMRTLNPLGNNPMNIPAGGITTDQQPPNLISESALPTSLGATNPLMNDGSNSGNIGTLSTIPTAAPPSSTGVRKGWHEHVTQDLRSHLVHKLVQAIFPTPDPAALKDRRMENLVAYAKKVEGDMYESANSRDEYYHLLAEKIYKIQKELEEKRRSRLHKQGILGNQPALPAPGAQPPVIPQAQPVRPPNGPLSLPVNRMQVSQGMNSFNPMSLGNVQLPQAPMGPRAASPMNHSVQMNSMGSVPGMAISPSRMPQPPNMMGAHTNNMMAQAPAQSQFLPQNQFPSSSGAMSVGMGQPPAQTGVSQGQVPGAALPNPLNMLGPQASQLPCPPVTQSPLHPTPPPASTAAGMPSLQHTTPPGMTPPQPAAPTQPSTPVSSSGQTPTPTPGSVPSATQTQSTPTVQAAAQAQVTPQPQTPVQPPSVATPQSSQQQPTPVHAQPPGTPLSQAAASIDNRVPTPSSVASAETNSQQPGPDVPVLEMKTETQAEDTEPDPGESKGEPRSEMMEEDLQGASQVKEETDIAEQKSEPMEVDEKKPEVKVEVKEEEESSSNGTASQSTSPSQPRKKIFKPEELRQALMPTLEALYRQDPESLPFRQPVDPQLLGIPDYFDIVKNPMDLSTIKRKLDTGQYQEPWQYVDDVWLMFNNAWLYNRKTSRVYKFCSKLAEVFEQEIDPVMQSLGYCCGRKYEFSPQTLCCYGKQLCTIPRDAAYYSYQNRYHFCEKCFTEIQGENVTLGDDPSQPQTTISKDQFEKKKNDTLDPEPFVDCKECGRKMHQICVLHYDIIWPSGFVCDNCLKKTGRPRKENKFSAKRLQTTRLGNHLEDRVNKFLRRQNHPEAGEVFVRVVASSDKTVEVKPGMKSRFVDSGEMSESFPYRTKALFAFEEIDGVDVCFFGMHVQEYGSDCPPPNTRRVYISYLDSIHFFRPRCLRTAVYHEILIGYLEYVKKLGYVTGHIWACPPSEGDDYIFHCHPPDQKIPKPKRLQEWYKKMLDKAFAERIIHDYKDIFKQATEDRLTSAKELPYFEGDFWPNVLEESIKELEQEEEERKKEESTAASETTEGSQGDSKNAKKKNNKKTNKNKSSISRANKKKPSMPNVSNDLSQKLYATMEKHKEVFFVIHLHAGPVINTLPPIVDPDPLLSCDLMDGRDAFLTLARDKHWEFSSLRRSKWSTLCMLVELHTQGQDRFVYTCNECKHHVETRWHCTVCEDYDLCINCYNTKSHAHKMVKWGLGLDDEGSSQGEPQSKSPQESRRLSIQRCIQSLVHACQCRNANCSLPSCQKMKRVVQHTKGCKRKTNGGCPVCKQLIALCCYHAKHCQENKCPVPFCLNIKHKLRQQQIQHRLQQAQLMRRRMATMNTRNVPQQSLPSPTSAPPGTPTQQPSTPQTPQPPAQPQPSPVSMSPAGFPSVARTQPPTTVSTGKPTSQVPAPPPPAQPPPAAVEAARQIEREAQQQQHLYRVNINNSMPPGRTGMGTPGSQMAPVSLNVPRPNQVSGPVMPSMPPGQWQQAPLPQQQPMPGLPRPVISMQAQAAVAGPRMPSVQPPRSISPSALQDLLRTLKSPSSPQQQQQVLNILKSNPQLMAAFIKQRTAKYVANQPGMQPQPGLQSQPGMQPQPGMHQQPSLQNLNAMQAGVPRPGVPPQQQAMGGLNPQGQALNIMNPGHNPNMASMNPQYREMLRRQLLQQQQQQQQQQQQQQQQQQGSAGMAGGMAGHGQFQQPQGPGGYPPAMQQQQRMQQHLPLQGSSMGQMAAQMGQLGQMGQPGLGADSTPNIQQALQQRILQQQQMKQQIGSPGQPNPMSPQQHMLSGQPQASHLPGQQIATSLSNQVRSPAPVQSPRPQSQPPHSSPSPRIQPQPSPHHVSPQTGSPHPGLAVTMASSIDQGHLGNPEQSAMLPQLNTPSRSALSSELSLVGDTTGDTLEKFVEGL
The target in data set [6] is Histone acetyltransferase KAT7 (Homo sapiens, UniProt O95251). The experiment in a line: Inhibition of MYST2 (unknown origin) using biotinylated H4 (1 to […])-GSGSK peptide as substrate incubated for 1 hr by AlphaLISA assay.
For data set [7], the target named is T2, CREB-binding protein. The experiment in a line: Inhibition of CBP (unknown origin) at 50 uM using biotinylated H4 (1 to 25)-GSGSK peptide as substrate incubated for 1 hr by AlphaLISA assay relative to control. (In Alpha technology, singlet oxygen from a donor bead excites a nearby acceptor bead.)
The target in data set [8] is Histone acetyltransferase KAT2B (Homo sapiens, UniProt Q92831). Put plainly: Inhibition of GST tagged human PCAF (431 to end residues) expressed in Sf9 cells using biotinylated H3 (1 to 21)-GGK peptide as substrate incubated for 1 hr by AlphaLISA assay.
In data set [9] the target is Histone acetyltransferase KAT6B (Homo sapiens, UniProt Q8WYB5). Put plainly: Inhibition of MYST4 (unknown origin) using biotinylated H4 (1 to […])-GSGSK peptide as substrate incubated for 1 hr by AlphaLISA assay.
Data set [10] addresses Histone acetyltransferase KAT5 (Homo sapiens, UniProt Q92993). The experiment in a line: Inhibition of GST tagged human TIP60 expressed in Sf9 cells using biotinylated H4 (1 to 25)-GSGSK peptide as substrate incubated for 1 hr by AlphaLISA assay.
Data set [11] can be described thus: Protein binding in mouse plasma assessed as unbound fraction. The data set is classed as ADME, cell-free.
Data set [12] is described as follows: Solubility of the compound at pH 1.2. The following applies: buffer. The data set is classed as physicochemical.
Data set [13] in a line: Permeability of compound at pH 7.4 by PAMPA assay. The data set is classed as ADME. The following applies: read-out: permeability.
Data set [14] can be described thus: Permeability of compound at pH 5.0 by PAMPA assay. It counts as ADME. The following applies: read-out: permeability.
The test system of data set [15] is LK-2. The experiment in a line: Antitumor activity against human LK2 cells xenografted in BALB/c nude mouse assessed as suppression of SOX2 mRNA level in […] at 50 to 200 mg/kg, po and measured after 6 hrs by qRT-PCR analysis relative to GADPH. The data set is classed as functional, organism-based. The following applies: dose 50-200 mg/kg, DDE = dose-dependent effect.

The test system of data set [16] is LK-2. Put plainly: Antitumor activity against human LK2 cells xenografted in BALB/c nude mouse assessed as suppression of SOX2 mRNA level in tumor at 50 to 200 mg/kg, po and measured after 6 hrs by qRT-PCR analysis relative to GADPH. It counts as functional, organism-based. The following applies: dose 50-200 mg/kg, DDE = dose-dependent effect.
Data set [17] is described as follows: Lipophilicity, logD of compound. The data set is classed as physicochemical. The following applies: octanol/water.
Data set [18] is described as follows: Solubility of the compound at pH 6.8. It counts as physicochemical. The following applies: buffer.
Data set [19] in a line: Inhibition of SOX2 mRNA expression in human LK2 cells incubated for 6 hrs by RT-qPCR analysis. The data set is classed as functional, cell-based. The following applies: LK-2, 6 h.

Converted amounts (≈) assume the structure as drawn. Where only a bound is given, the exact number is not on record here.

T1 sequence (Q09472 whole entry, the tested form may be a part): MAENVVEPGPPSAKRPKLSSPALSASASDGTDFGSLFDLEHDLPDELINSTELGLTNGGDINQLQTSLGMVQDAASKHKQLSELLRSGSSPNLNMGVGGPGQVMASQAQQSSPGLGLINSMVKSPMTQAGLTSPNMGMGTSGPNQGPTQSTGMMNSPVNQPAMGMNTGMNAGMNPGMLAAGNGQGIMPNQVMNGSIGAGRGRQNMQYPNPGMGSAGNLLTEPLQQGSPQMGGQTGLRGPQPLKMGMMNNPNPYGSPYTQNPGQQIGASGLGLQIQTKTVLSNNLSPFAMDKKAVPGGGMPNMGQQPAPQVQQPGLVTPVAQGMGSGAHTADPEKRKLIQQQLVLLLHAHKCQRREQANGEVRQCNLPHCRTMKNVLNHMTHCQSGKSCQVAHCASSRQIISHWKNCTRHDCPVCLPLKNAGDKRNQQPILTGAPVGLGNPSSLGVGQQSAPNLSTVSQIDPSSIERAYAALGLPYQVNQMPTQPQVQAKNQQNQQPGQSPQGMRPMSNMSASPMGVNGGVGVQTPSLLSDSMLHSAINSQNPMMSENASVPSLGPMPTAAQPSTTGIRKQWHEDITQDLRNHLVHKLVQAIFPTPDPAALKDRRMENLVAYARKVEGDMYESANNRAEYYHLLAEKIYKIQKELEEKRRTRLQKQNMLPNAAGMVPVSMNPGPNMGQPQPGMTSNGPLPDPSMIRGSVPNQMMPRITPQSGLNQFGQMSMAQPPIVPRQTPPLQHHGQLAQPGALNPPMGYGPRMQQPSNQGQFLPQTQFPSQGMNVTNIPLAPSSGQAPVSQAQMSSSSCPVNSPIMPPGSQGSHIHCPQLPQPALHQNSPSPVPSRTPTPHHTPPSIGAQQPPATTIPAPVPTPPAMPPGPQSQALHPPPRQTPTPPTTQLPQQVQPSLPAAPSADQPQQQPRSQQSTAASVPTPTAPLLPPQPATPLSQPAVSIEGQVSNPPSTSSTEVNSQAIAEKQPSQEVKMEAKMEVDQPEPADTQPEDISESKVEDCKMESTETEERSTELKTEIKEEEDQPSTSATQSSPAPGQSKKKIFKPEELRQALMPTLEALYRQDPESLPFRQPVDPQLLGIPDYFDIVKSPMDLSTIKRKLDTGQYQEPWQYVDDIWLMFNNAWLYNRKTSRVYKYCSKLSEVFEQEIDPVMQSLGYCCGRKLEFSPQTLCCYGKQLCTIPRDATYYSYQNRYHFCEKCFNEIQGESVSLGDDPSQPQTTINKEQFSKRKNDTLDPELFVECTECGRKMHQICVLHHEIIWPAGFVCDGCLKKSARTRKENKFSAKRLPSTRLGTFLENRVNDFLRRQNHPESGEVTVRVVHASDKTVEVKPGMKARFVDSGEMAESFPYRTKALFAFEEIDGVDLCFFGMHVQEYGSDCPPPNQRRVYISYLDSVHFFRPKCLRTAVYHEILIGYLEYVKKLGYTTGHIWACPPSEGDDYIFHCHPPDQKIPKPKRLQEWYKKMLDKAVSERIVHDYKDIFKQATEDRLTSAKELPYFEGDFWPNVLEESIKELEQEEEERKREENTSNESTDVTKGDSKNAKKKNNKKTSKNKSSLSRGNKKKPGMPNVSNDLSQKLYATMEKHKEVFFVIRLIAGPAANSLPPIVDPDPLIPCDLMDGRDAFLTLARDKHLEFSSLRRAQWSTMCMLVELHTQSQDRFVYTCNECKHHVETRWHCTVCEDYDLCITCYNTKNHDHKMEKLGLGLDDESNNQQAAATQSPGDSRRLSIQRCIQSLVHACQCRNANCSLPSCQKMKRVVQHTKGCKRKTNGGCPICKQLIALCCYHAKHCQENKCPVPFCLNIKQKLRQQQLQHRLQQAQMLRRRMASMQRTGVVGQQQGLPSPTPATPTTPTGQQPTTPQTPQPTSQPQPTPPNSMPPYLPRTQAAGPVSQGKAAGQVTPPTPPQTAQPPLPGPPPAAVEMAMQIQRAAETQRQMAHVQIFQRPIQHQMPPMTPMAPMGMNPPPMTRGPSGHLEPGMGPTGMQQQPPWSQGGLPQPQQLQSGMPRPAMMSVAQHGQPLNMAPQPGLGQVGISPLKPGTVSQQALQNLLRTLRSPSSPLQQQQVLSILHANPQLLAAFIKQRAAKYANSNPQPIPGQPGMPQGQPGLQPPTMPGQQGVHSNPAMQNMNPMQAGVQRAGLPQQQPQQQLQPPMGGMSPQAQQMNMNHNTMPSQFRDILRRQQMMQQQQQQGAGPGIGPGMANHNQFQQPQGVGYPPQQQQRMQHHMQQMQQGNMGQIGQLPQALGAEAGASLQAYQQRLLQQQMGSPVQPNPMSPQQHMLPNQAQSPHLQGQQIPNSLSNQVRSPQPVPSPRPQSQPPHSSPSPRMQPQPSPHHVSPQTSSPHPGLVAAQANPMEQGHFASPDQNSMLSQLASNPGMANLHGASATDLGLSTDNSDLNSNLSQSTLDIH

As for `COc1ccc(C2(C(=O)N3CCC[C@@H]3C(=O)Nc3cccc4[nH]ncc34)CCCCC2)cc1`, the IC50 came out at 170 nM in [1] and 420 nM in data set [2].

Consider `COc1ccc(C2(C(=O)N3C[C@H](O)C[C@@H]3C(=O)Nc3cccc4[nH]ncc34)CCCC2)cc1`, for which, in data set [2], the IC50 was 1030 nM. Also, in data set [3], the remaining at 0.5 h turned out to be 47%.

As to `CC1=NN(c2ccc(C(=O)O)cc2)C(=O)/C1=C\c1ccc(-c2cc(C)c(C)cc2[N+](=O)[O-])o1`, the IC50 in [4] was 47400 nM; at CREB-binding protein [5], > 50000 nM; in [6], 7810 nM; in [8] it was 38900 nM; in data set [9], 21000 nM; in data set [10], 37200 nM. The compound further returned an inhibition on CREB-binding protein [7] of 29%.

`COc1ccc(C2(C(=O)N3CCOCC(Cc4cccc5[nH]ncc45)C3)CCCC2)cc1` (single isomer, unassigned; (+)): the IC50 is 50 nM in [1] and 130 nM in data set [2].

For `COc1ccc(C2(C(=O)N3CCOCC(Cc4cccc5[nH]ncc45)C3)CCCC2)cc1` (single isomer, unassigned; (-)), the IC50 in data set [2] was > 25000 nM.

Regarding `COc1ccc(C2(C(=O)N3CCOCC(Cc4cccc5[nH]ncc45)C3)CCOCC2)cc1` (stereo not given), the 50% inhibitory concentration (IC50) in data set [1] amounted to 610 nM; in data set [2], 2240 nM.

`COc1ccc(C2(C(=O)N(C)CC(=O)Nc3cccc4[nH]ncc34)CCCCC2)cc1`: the IC50 in data set [1] turned out to be 190 nM; in [2] it was 1010 nM.

`COc1ccc(C2(C(=O)N3CS(=O)(=O)C[C@@H]3C(=O)Nc3cccc4[nH]ncc34)CCCC2)cc1`: the fraction unbound in [11] came to 0.952. Further, the figures for the solubility in data set [12] and in data set [18] were 63 µg/mL (≈ 131 µM) and 50 µg/mL (≈ 104 µM), respectively. Also, the IC50 came to 150 nM in data set [1], 450 nM in data set [2], 40 nM at CREB-binding protein [5] and 700 nM in data set [19]. The Papp in data set [13] and in data set [14] was > 50 ×10⁻⁶ cm/s throughout. Besides, in data set [3], the remaining at 0.5 h was 37%. The Activity result in the data set on LK-2 [15] and with LK-2 [16] was “Dde” throughout. Moreover, the logD in [17] was 3.2.

In the case of `COc1ccc(C2(C(=O)N3CCOCC(Cc4cccc5[nH]ncc45)C3)CCCC2)cc1` (stereo in doubt; 3), the IC50 is 130 nM in data set [1] and 380 nM in data set [2].

Turning to `COc1ccc(C2(C(=O)N3C[C@H](F)C[C@@H]3C(=O)Nc3cccc4[nH]ncc34)CCCC2)cc1`, the values for the IC50 in data set [1] and in data set [2] were 56 nM and 460 nM, respectively. The remaining at 0.5 h in data set [3] was 5%.

Consider `COc1ccc(C2(C(=O)N3CCOCC(Cc4cccc5[nH]ncc45)C3)CCCCC2)cc1` (stereo not given), for which the values for the IC50 in data set [1] and in data set [2] were 140 nM and 610 nM, respectively.

Regarding `COc1ccc(C2(C(=O)N(C)[C@H](C)C(=O)Nc3cccc4[nH]ncc34)CCCC2)cc1`, the results for the concentration for half-maximal inhibition (IC50) in data set [1] and in data set [2] were 220 nM and 5020 nM, respectively.

Consider `COc1ccc(C2(C(=O)N3C[C@@H](O)C[C@@H]3C(=O)Nc3cccc4[nH]ncc34)CCCC2)cc1`, for which the IC50 in data set [1] came to 910 nM; in [2], 1450 nM. For the same compound, the remaining at 0.5 h in data set [3] is 57%.

`COc1ccc(C2(C(=O)N3CCC[C@@H]3C(=O)Nc3cccc4[nH]ncc34)CCCC2)cc1`: in data set [1], the IC50 came out at 180 nM. The remaining at 0.5 h in data set [3] was found to be 10%.

By IC50 is commonly meant the concentration that inhibits the measured activity by half. The term inhibition denotes the change of the read-out against control, counted positive when it falls. A word on the fraction unbound: it is the share of the substance not bound to proteins or other matrix. As a reminder, the solubility is the concentration that dissolves in the medium under given conditions. One may read the logD as the decadic logarithm of the distribution of all forms, ionised or not, between an organic phase and buffer at a given pH. Low readings indicate lower lipophilicity, high ones higher lipophilicity.

The record behind these values is ChEMBL document CHEMBL5143662, “Discovery of EP300/CBP histone acetyltransferase inhibitors through scaffold hopping of 1,4-oxazepane ring” (Bioorg Med Chem Lett, 2022).
